ChEMBL document CHEMBL4732170, “Discovery of Small-Molecule Antagonists of the PWWP Domain of NSD2” (J Med Chem, 2021)
Activity calls are given as the source filed them. The calls are words filed in the database; no cut-off is given here.

Tests used:
[1] = target: T1, Histone-lysine N-methyltransferase NSD3 (Homo sapiens) (UniProt Q9BZ95); test: Binding affinity to NSD3 PWWP1 domain (unknown origin) assessed as aggregation temperature at 400 uM by heating at 25 to 85 degC by differential static light scattering method
T1 sequence (whole entry): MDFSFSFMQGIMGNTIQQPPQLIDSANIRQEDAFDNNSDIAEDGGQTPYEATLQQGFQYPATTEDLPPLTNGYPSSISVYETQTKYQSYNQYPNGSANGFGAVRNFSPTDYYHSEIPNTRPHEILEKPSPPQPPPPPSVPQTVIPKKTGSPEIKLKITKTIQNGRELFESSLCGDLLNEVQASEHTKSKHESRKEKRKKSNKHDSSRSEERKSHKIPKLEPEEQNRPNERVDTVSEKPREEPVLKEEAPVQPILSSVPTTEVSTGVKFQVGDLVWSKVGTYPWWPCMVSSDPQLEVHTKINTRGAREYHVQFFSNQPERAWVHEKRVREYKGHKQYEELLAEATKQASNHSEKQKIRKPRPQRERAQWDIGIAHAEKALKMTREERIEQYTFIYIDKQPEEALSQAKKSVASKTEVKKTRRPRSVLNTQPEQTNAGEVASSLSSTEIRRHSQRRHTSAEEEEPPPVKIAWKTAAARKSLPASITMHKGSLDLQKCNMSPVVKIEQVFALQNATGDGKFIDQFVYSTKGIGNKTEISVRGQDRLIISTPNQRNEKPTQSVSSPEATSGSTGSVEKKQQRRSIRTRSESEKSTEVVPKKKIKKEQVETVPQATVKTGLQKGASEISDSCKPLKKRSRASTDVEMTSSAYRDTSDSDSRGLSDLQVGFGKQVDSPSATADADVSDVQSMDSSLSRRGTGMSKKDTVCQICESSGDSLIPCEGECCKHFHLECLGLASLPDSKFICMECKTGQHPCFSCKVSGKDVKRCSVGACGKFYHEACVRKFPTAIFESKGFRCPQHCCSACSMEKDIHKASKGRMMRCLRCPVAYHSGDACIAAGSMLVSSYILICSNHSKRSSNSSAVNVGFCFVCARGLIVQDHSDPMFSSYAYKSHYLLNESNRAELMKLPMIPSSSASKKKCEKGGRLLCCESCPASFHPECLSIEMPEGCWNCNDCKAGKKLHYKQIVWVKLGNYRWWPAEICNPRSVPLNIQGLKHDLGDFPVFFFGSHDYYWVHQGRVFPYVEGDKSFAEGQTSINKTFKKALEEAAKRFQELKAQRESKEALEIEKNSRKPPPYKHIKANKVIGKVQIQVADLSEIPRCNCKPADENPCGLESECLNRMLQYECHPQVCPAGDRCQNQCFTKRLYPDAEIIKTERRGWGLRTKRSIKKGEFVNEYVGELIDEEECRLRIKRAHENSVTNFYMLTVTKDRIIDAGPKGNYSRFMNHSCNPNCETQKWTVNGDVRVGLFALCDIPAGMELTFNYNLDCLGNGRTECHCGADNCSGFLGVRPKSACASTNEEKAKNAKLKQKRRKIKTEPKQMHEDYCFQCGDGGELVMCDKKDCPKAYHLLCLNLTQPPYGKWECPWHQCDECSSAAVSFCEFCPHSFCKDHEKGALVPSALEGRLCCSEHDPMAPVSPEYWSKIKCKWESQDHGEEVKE

[2] = target: T2, Zinc finger MYND domain-containing protein 11 (Homo sapiens) (UniProt Q15326); test: Binding affinity to ZMYND11 PWWP1 domain (unknown origin) assessed as aggregation temperature at 400 uM by heating at 25 to 85 degC by differential static light scattering method
T2 sequence (whole entry): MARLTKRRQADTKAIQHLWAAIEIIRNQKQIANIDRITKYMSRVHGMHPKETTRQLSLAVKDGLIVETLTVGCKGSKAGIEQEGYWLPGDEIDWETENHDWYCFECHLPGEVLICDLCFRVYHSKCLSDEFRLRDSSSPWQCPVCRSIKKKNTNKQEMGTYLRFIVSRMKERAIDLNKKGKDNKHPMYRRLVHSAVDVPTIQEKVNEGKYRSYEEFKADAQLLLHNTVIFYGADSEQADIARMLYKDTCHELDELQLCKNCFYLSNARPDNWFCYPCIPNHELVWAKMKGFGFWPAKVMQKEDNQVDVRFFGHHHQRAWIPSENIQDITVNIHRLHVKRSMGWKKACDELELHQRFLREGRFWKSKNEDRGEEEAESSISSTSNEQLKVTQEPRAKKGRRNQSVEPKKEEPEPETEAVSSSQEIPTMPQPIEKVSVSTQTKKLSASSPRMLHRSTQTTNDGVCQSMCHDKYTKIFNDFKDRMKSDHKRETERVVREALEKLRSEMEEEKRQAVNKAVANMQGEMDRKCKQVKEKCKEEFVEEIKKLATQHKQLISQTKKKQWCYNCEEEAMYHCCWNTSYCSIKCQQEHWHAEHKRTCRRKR

**Q.** What does the source list for N#Cc1ccc(C(C(N)=O)N2CCC2c2ccc(Cl)cc2)cc1 (configuration not stated)?
**A.** Activity [1]: inactive; Activity [2]: inactive
